Laboratory results reported in US8143263B2, “Therapeutic agents” (Astrazeneca AB, priority 2008, dated 2012).

Target: T1, recombinant human pancreatic GLK (Homo sapiens, UniProt P35557)
T1 sequence (P35557 1-465): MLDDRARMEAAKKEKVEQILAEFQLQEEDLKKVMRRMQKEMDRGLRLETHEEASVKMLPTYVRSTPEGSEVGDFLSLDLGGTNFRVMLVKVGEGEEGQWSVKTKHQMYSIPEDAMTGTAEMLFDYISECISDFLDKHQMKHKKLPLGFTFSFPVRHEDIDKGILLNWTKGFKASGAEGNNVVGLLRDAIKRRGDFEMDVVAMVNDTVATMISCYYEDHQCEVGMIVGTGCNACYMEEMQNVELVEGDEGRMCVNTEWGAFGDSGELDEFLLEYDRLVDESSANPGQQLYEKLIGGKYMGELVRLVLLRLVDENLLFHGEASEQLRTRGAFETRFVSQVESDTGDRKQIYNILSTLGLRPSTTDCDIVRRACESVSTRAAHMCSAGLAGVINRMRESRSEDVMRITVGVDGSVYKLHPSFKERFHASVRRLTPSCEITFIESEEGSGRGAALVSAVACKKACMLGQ
Assay: biochemical

Compound	EC50 [nM]
CCOC[C@H](Oc1ncnc2c1nnn2-c1ccccc1Cl)C(=O)Nc1ccc(C#N)cn1 [Example 197, (2S)-2-(3-(2-chlorophenyl)-3H-[1,2,3]triazolo[4,5-d]pyrimidin-7-yloxy)-N-(5-cyanopyridin-2-yl)-3-ethoxypropanamide]	600
Cc1ccccc1-n1nnc2c(O[C@@H](COCCO)C(=O)Nc3ccc(Cl)cn3)ncnc21 [Example 198, (2S)—N-(5-chloropyridin-2-yl)-3-(2-hydroxyethoxy)-2-(3-o-tolyl-3H-[1,2,3]triazolo[4,5-d]pyrimidin-7-yloxy)propanamide]	2200
O=C(Nc1ccccn1)[C@H](COCCO)Oc1ncnc2c1cnn2-c1ccccc1C(F)(F)F [Example 199, (2S)-3-(2-hydroxyethoxy)-N-(pyridin-2-yl)-2-(1-(2-(trifluoromethyl)phenyl)-1H-pyrazolo[3,4-d]pyrimidin-4-yloxy)propanamide]	1100
C[C@H](CO)OC[C@H](Oc1ncnc2c1cnn2-c1ccccc1Cl)C(=O)Nc1ccccn1 [Example 200, (2S)-2-(1-(2-chlorophenyl)-1H-pyrazolo[3,4-d]pyrimidin-4-yloxy)-3-((R)-1-hydroxypropan-2-yloxy)-N-(pyridin-2-yl)propanamide]	440
O=C(Nc1ccccn1)[C@H](COCCO)Oc1ncnc2c1cnn2-c1ccccc1Cl [Example 201, (2S)-2-(1-(2-chlorophenyl)-1H-pyrazolo[3,4-d]pyrimidin-4-yloxy)-3-(2-hydroxyethoxy)-N-(pyridin-2-yl)propanamide]	650
O=C(Nc1ccc(Cl)cn1)[C@H](COCCO)Oc1ncnc2c1cnn2-c1cccc(Cl)c1Cl [Example 202, (2S)—N-(5-chloropyridin-2-yl)-2-(1-(2,3-dichlorophenyl)-1H-pyrazolo[3,4-d]pyrimidin-4-yloxy)-3-(2-hydroxyethoxy)propanamide]	340
N#Cc1ccc(NC(=O)[C@H](COCCO)Oc2ncnc3c2cnn3-c2cccc(Cl)c2Cl)nc1 [Example 203, (2S)—N-(5-cyanopyridin-2-yl)-2-(1-(2,3-dichlorophenyl)-1H-pyrazolo[3,4-d]pyrimidin-4-yloxy)-3-(2-hydroxyethoxy)propanamide]	830
Cc1ccc(NC(=O)[C@H](COC[C@H](C)O)Oc2ncnc3c2cnn3-c2ncccc2Cl)nc1 [Example 204, (2S)-2-(1-(3-chloropyridin-2-yl)-1H-pyrazolo[3,4-d]pyrimidin-4-yloxy)-3-((S)-2-hydroxypropoxy)-N-(5-methylpyridin-2-yl)propanamide]	1300
Cc1ccc(NC(=O)[C@H](CN2CC(O)C2)Oc2ncnc3c2cnn3-c2ccccc2Cl)nc1 [Example 205, (2S)-2-(1-(2-chlorophenyl)-1H-pyrazolo[3,4-d]pyrimidin-4-yloxy)-3-(3-hydroxyazetidin-1-yl)-N-(5-methylpyridin-2-yl)propanamide]	240
Cc1ccc(NC(=O)[C@H](CN2CC(O)C2)Oc2ncnc3c2cnn3-c2ncccc2Cl)nc1 [Example 206, (2S)-2-(1-(3-chloropyridin-2-yl)-1H-pyrazolo[3,4-d]pyrimidin-4-yloxy)-3-(3-hydroxyazetidin-1-yl)-N-(5-methylpyridin-2-yl)propanamide]	570
Cc1c(C#N)cccc1-n1ncc2c(O[C@@H](COCCO)C(=O)Nc3ccc(C#N)cn3)ncnc21 [Example 207, (2S)-2-(1-(3-cyano-2-methylphenyl)-1H-pyrazolo[3,4-d]pyrimidin-4-yloxy)-N-(5-cyanopyridin-2-yl)-3-(2-hydroxyethoxy)propanamide]	5000
Cc1ccc(NC(=O)[C@H](COCCO)Oc2ncnc3c2cnn3-c2cccc(C#N)c2C)nc1 [Example 208, (2S)-2-(1-(3-cyano-2-methylphenyl)-1H-pyrazolo[3,4-d]pyrimidin-4-yloxy)-3-(2-hydroxyethoxy)-N-(5-methylpyridin-2-yl)propanamide]	2800
Cc1c(C#N)cccc1-n1ncc2c(O[C@@H](COCCO)C(=O)Nc3ccc(Cl)cn3)ncnc21 [Example 209, (2S)—N-(5-chloropyridin-2-yl)-2-(1-(3-cyano-2-methylphenyl)-1H-pyrazolo[3,4-d]pyrimidin-4-yloxy)-3-(2-hydroxyethoxy)propanamide]	1500
CCOC[C@H](Oc1ncnc2c1cnn2-c1nccn1C)C(=O)Nc1ccc(Cl)cn1 [Example 210, (2S)—N-(5-chloropyridin-2-yl)-3-ethoxy-2-(1-(1-methyl-1H-imidazol-2-yl)-1H-pyrazolo[3,4-d]pyrimidin-4-yloxy)propanamide]	1200
Cc1ccc(NC(=O)[C@H](COC(C)C)Oc2ncnc3c2cnn3-c2nccn2C)nc1 [Example 211, (2S)-3-isopropoxy-2-(1-(1-methyl-1H-imidazol-2-yl)-1H-pyrazolo[3,4-d]pyrimidin-4-yloxy)-N-(5-methylpyridin-2-yl)propanamide]	1100
O=C(Nc1ccc(Cl)cn1)[C@H](CCCO)Oc1ncnc2c1cnn2-c1ncccc1Cl [Example 212, (2S)—N-(5-chloropyridin-2-yl)-2-(1-(3-chloropyridin-2-yl)-1H-pyrazolo[3,4-d]pyrimidin-4-yloxy)-5-hydroxypentanamide]	490
N#Cc1ccc(NC(=O)[C@H](CCCO)Oc2ncnc3c2cnn3-c2ncccc2Cl)nc1 [Example 213, (2S)-2-(1-(3-chloropyridin-2-yl)-1H-pyrazolo[3,4-d]pyrimidin-4-yloxy)-N-(5-cyanopyridin-2-yl)-5-hydroxypentanamide]	1100
CCOC[C@H](Oc1ncnc2c1cnn2-c1cccc(Cl)c1Cl)C(=O)Nc1ccc(C#N)cn1 [Example 214, (2S)—N-(5-cyanopyridin-2-yl)-2-(1-(2,3-dichlorophenyl)-1H-pyrazolo[3,4-d]pyrimidin-4-yloxy)-3-ethoxypropanamide]	320
O=C(Nc1ccc(F)cn1)[C@H](CN1CC(O)C1)Oc1ncnc2c1cnn2-c1ccccc1Cl [Example 215, (2S)-2-[1-(2-chlorophenyl)pyrazolo[4,5-e]pyrimidin-4-yl]oxy-N-(5-fluoro-2-pyridyl)-3-(3-hydroxyazetidin-1-yl)propanamide]	229
C[C@H](CO)OC[C@H](Oc1ncnc2c1cnn2-c1c(Cl)cccc1C#N)C(=O)Nc1ccc(Cl)cn1 [Example 216, (2S)-2-[1-(2-chloro-6-cyano-phenyl)pyrazolo[4,5-e]pyrimidin-4-yl]oxy-N-(5-chloro-2-pyridyl)-3-[(1R)-2-hydroxy-1-methyl-ethoxy]propanamide]	163
O=C(Nc1ccc(F)cn1)[C@H](COCCO)Oc1ncnc2c1cnn2-c1c(Cl)cccc1Cl [Example 218, (2S)-2-[1-(2,6-dichlorophenyl)pyrazolo[4,5-e]pyrimidin-4-yl]oxy-N-(5-fluoro-2-pyridyl)-3-(2-hydroxyethoxy)propanamide]	215
Cc1cnc(NC(=O)[C@H](CN2CC(O)C2)Oc2ncnc3c2cnn3-c2ccccc2Cl)cn1 [Example 219, (2S)-2-[1-(2-chlorophenyl)pyrazolo[4,5-e]pyrimidin-4-yl]oxy-3-(3-hydroxyazetidin-1-yl)-N-(5-methylpyrazin-2-yl)propanamide]	280
N#Cc1cccc(Cl)c1-n1ncc2c(O[C@@H](CN3CCC3)C(=O)Nc3ccccn3)ncnc21 [Example 221, (2S)-3-(azetidin-1-yl)-2-[1-(2-chloro-6-cyano-phenyl)pyrazolo[3,4-d]pyrimidin-4-yl]oxy-N-(2-pyridyl)propanamide]	310
O=C(Nc1ccccn1)[C@H](CN1CC(O)C1)Oc1ncnc2c1cnn2-c1c(F)cccc1Cl [Example 222, (2S)-2-[1-(2-chloro-6-fluoro-phenyl)pyrazolo[3,4-d]pyrimidin-4-yl]oxy-3-(3-hydroxyazetidin-1-yl)-N-(2-pyridyl)propanamide]	140
N#Cc1ccc(NC(=O)[C@H](CN2CC(O)C2)Oc2ncnc3c2cnn3-c2ccccc2Cl)nc1 [Example 223, (2S)-2-[1-(2-chlorophenyl)pyrazolo[3,4-d]pyrimidin-4-yl]oxy-N-(5-cyano-2-pyridyl)-3-(3-hydroxyazetidin-1-yl)propanamide]	310
N#Cc1ccc(NC(=O)[C@H](CN2CC(O)C2)Oc2ncnc3c2cnn3-c2c(Cl)cccc2C#N)nc1 [Example 224, (2S)-2-[1-(2-chloro-6-cyano-phenyl)pyrazolo[3,4-d]pyrimidin-4-yl]oxy-N-(5-cyano-2-pyridyl)-3-(3-hydroxyazetidin-1-yl)propanamide]	510
O=C(Nc1ccccn1)[C@H](CN1CC(O)C1)Oc1ncnc2c1cnn2-c1ccccc1Cl [Example 225, (2S)-2-[1-(2-chlorophenyl)pyrazolo[3,4-d]pyrimidin-4-yl]oxy-3-(3-hydroxyazetidin-1-yl)-N-(2-pyridyl)propanamide]	220
O=C(Nc1ccc(Cl)cn1)[C@H](CN1CC(O)C1)Oc1ncnc2c1cnn2-c1ccccc1Cl [Example 226, (2S)-2-[1-(2-chlorophenyl)pyrazolo[3,4-d]pyrimidin-4-yl]oxy-N-(5-chloro-2-pyridyl)-3-(3-hydroxyazetidin-1-yl)propanamide]	130
Cc1ccc(NC(=O)[C@H](CO[C@H](C)CO)Oc2ncnc3c2cnn3-c2cscc2C)nc1 [Example 227, (2S)-3-[(1R)-2-hydroxy-1-methyl-ethoxy]-N-(5-methyl-2-pyridyl)-2-[1-(4-methyl-3-thienyl)pyrazolo[3,4-d]pyrimidin-4-yl]oxy-propanamide]	320
O=C(Nc1ccccn1)[C@H](CN1CC(CO)C1)Oc1ncnc2c1cnn2-c1ccccc1Cl [Example 228, (2S)-2-[1-(2-chlorophenyl)pyrazolo[3,4-d]pyrimidin-4-yl]oxy-3-[3-(hydroxymethyl)azetidin-1-yl]-N-(2-pyridyl)propanamide]	460
